Results from patent publication US20260034173A1, “USE OF MANGANESE-CONTAINING COMPOUND IN REDUCING LEVEL OF URIC ACID OF MAMMALIAN SUBJECT” (Shanghai Shiqu Pharmaceutical Technology Co., Ltd., priority 2022, published 2026).

Tests used:
[1] = test system: oteracil potassium and adenine induced hyperuricemia model mice; assay: Oteracil potassium and adenine induced hyperuricemia model mice; format: in vivo, KM mice; conditions: day 6; allopurinol 50 mg/L drinking water, febuxostat 5 mg/kg/day gavage, manganese oxides 1.16 w/w % in diet
Excerpt: Oteracil potassium and adenine are known to be model drugs capable of inducing hyperuricemia in mice. Specifically, oteracil potassium is a urate oxidase inhibitor that can inhibit further metabolism of uric acid in mice, thereby increasing the concentration of uric acid in the blood of mice; adenine can damage the kidneys, thereby reducing the excretion of uric acid from the kidneys of mice. […] Six days after the beginning of the experiment, 24-hour urine of each group of mice was collected and uric acid content in the urine was detected by the uric acid assay kit to investigate the effects of various experimental substances on the amount of uric acid excreted in the urine of mice.
The control group was fed with basic mouse diet the first day (i.e. the day of the experiment) to the seventh day after the start of the experiment, and the other groups were fed with modeling mouse diet (4.4 w/w % oteracil potassium and 0.44 w/w % adenine were added into the basic mouse diet) for inducing hyperuricemia. […] The uric acid level in urine was measured using a uric acid assay kit (Solarbio, Beijing, China), and the amount of uric acid excreted through urine in 24 hours was calculated based on the urine volume.

[2] = test system: oteracil potassium and hypoxanthine induced hyperuricemia model mice; assay: Oteracil potassium and hypoxanthine induced hyperuricemia model mice; format: in vivo, C57BL/6J mice; conditions: day 8; benzbromarone 10 mg/kg gavage, allopurinol 50 mg/L drinking water, manganese oxides 1.14 w/w % in diet
Procedure: Hypoxanthine can be metabolized into uric acid in the body, so it can also be used in combination with oteracil potassium as a model drug for inducing hyperuricemia in mice. In this example, the healthy mice were randomly divided into 7 groups, the mouse hyperuricemia model was established by administering oteracil potassium and hypoxanthine (they were injected intraperitoneally together) to 6 groups of mice, and 1 group of healthy mice injected intraperitoneally with normal saline was taken as the blank control group. The mice of the experimental groups were given the corresponding experimental substances according to the dosing regimen described in the following experimental method.
From the first day (i.e. the day of the experiment) to the eighth day after the start of the experiment, the blank control group was intraperitoneally injected with normal saline at 9:00 a.m. and 5:00 p.m. every day, and the remaining groups were intraperitoneally injected with modeling solution (100 mg/kg hypoxanthine+100 mg/kg oteracil potassium) at 9:00 am, and 5:00 p.m. every day. The benzbromarone group was administered with benzbromarone solution (10 mg/kg) by gavage at 10 am every day. […]

[3] = test system: urate oxidase knockout (UOX KO) mice; assay: Experiment on urate oxidase knockout (UOX KO) mice; format: in vivo; conditions: gavage daily; blood and 24-hour urine
Excerpt: Urate oxidase knockout (UOX KO) mice aged 6 to 8 weeks were selected, and urine and blood were collected after one week of acclimation to test urine uric acid and blood uric acid levels. […] Mice were gavaged with corresponding drugs daily. After the start of drug administration, the blood of mice was collected every other week to prepare serum, and 24-hour urine was collected to detect the uric acid content in the urine using a uric acid assay kit.

Row | SMILES | amount of uric acid excreted in the urine within 24 hours (FIG. 20) [1] | serum uric acid level (FIG. 22) [2] | reduction of uric acid in UOX KO mice [3]
1 | Oc1ncnc2[nH]ncc12 [allopurinol] | at a high level | significantly reduced | effective in reducing uric acid
2 | Cc1nc(-c2ccc(OCC(C)C)c(C#N)c2)sc1C(=O)O [febuxostat] | at a high level | – | –
3 | CCc1oc2ccccc2c1C(=O)c1cc(Br)c(O)c(Br)c1 [benzbromarone] | – | significantly reduced | –
